Data published in patent US11021448B2, “1,3-dihydro-1,4-benzodiazepine-2-thiones for the treatment of CNS related diseases” (priority 2016, dated 2021).
Where two headings read alike, the source gives them in different places.

How the values were obtained:
[1] = target: T1, hM1 (Homo sapiens, UniProt P11229); assay: FLIPR intracellular calcium assay for modulator activity at the muscarinic M1 receptor in CHO human M1 cells; type: cell-based
T1 construct: expressed in transfected cells; host or cells: CHO
T1 sequence (P11229 1-460): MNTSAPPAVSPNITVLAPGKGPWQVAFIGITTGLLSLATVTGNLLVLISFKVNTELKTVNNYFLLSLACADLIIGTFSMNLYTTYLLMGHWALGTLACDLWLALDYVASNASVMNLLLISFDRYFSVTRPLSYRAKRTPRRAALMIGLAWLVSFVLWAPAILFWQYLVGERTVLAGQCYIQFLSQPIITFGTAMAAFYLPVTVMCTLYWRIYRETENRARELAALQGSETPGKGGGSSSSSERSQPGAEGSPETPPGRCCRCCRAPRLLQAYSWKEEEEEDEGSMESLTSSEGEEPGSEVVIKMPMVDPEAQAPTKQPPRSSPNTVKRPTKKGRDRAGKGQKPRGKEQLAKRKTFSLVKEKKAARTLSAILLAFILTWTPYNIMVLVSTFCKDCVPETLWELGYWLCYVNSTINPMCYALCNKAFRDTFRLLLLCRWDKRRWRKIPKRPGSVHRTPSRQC
Protocol: The assay study the effect of several concentrations of test compounds on basal or acetylcholine-stimulated Ca^2+ levels using FLIPR.
The cell plate and the diluted compounds (1% DMSO final concentration) are placed on the platform of the FLIPR and the door closed. A signal test to check background fluorescence and basal fluorescence signal is performed. Laser intensity is adjusted if necessary. Two minutes preincubation with the diluted test compounds is provide to determine any agonist activity on the M1 receptor by comparison to 30 nM Acetylcholine control. In order to determine any modulator activity the diluted compounds were added to cells and after two minutes preincubation, the EC20 of acetylcholine is added followed by another two minutes preincubation before the measurement of intracellular Ca^2+ with a FLIPR (Molecular Devices).

[2] = test system: GABA A; assay: Oocyte EP; type: cell-based; settings: at 1 μM
[3] = target: T2, GABA-A alpha5 (α5β3γ2) (Homo sapiens, UniProt P18507+P31644); assay: GABA A radioligand binding assay, competition for [3H]flumazenil; settings: [3H]flumazenil 1 nM, HEK293 membranes
T2 construct: expressed in transfected cells; host or cells: HEK293 (transient transfection; membranes)
Protocol: The ability of compounds present invention to bind to GABA A receptor subtypes was determined by competition for [^3H]flumazenil (85 Ci/mmol; Roche) binding to HEK293 cells expressing human (transiently transfected) receptors of composition α1β2γ2, and α5β3γ2.
Membrane preparation Cell pellets were suspended in Krebs-tris buffer (5 mM KCl, 1.25 mM CaCl2), 1.25 mM MgCl2, 120 mM NaCl, 15 mM Tris; pH 7.5; binding assay buffer), homogenized by polytron for ca. 20 sec on ice and centrifuged for 60 min at 4° C. (50000 g; Sorvall, rotor: SM24=20000 rpm). The cell pellets were resuspended in Krebs-tris buffer and homogenized by polytron for ca. 15 sec on ice. Protein was measured (Bradford method, Bio-Rad) and aliquots of 1 mL were prepared and stored at −80° C.
Radioligand binding assays were carried out in a volume of 200 uL (96-well plates) which contained 100 μL of cell membranes, [3H]flumazenil at a concentration of 1 nM for a1, a2, a3 subunits and 1 nM for a5 subunits and the test compound in the range of 3.16 μM to 0.1 μM. Nonspecific binding was defined by 10^−5 M diazepam and typically represented less than 5% of the total binding. […] After drying, filter-retained radioactivity was detected by liquid scintillation counting.
Ki values were calculated using Excel-Fit (Microsoft) and are the means of two determinations.

[4] = CHO human M1, with EC20 of acetylcholine, FLIPR, read-out: IC50 value hM1 (converted)

CC(=O)OC1C=C(c2ccccc2F)c2cc(Cl)ccc2NC1=S (centres unmarked) [Example 14, [7-chloro-5-(2-fluorophenyl)-2-thioxo-1,3-dihydro-1-benzazepin-3-yl]acetate]
IC50 [1, 4]: 649 nM | melting point: 214 to 215 °C

S=C1Nc2ccc(Cl)cc2C(c2ccccc2Cl)=NC1CC1CC1 (centres unmarked) [Example X2, 7-chloro-5-(2-chlorophenyl)-3-(cyclopropylmethyl)-1H-benzo[e][1,4]diazepine-2(3H)-thione]
activity at M1 receptor [1]: no activity

CCCC1=NCC(=S)Nc2ccc(Cl)cc21 [Example 17, 7-chloro-5-propyl-1,3-dihydro-1,4-benzodiazepine-2-thione]
IC50 [1, 4]: 1280 nM

CC(C)[C@@H]1N=C(c2ccccc2F)c2cc(Cl)ccc2NC1=S [Example 5, (3S)-7-chloro-5-(2-fluorophenyl)-3-propan-2-yl-1,3-dihydro-1,4-benzodiazepine-2-thione]
Oocyte EP effect [2]: no effect | IC50 [1]: 80 nM | Ki ([3]; GABA-A alpha 5 (second value, Ki implied), second value): > 36000 nM | Ki ([3]; GABA-A alpha5: Ki): > 24000 nM
